In patent US9901611B2 (Molecular Defenses Corporation, priority 2015, dated 2018):
Like-named read-outs stand apart in the source and are kept apart here.

Tests used:
[1] = rat, i.v. bolus, cited from earlier work
[2] = 1,200 mg/day i.v., compared to baseline; cited from earlier work
[3] = mouse, GSH pretreatment; cited from earlier work
[4] = Phase I/II clinical trial of oral GSH in HIV positive patients, PBMC intracellular GSH; assay type: in vivo, human
From the text: Early clinical trials determined the pharmacokinetics of absorption and intracellular distribution in Peripheral Blood Mononuclear Cells in asymptomatic HIV (+) patients, using three doses of 1 gm, 2 gms and 3 gms/day over a 4 week period, with two weeks of baselines, plus two weeks of post drug exposure.

[5] = infusion 10 mg/min for 120 min, cited from earlier work
[6] = test system: mouse cytotoxic T-lymphocytes; settings: i.p. injection on the third day post immunization; cited from earlier work
[7] = cited from earlier work
[8] = test system: high-affinity component of mitochondrial GSH transport; settings: stimulated by ATP; cited from earlier work
[9] = test system: HIV; settings: U1 cells, in the absence of cytotoxic or cytostatic effects; cited from earlier work
[10] = in vivo, po; for share absorbed and intracellular: 1.5 hours
From the text: It would be possible to follow the two groups and to compare the rates of progression to determine statistically significant differences.

[11] = 5 g oral per day, two female patients who survived 1 year; cited from earlier work
[12] = test system: microglial cells; settings: microglia, NO and superoxide generated simultaneously; cited from earlier work
[13] = human, in vivo, iv; cited from earlier work
[14] = far advanced AIDS
From the text: A clinical study on far advanced AIDS patients who had exhausted the HAART combinations and averaged 300,000 copies (HIV RNA PCR) and 50 CD4+ cells/per cubic mm.

[15] = test system: HIV-1; settings: in vitro, cited from earlier work
[16] = test system: HIV-1 LTR; settings: Jurkat cells, synergistic induction by TNFα and Tat; cited from earlier work
[17] = rats, LPS; cited from earlier work
[18] = high end of dose range 50-300 mmol/kg
[19] = low end of dose range 50-300 mmol/kg
[20] = asymptomatic HIV (+) patients, 1, 2 and 3 gms/day

N[C@@H](CCC(=O)N[C@@H](CS)C(=O)NCC(=O)O)C(=O)O [GSH, gamma-glutamyl-cysteinyl-glycine]
apparent volume of distribution [1, 18]: 1.33 L/kg | half-life of the elimination phase [1, 18]: 11.4 min | rate constant for drug elimination and plasma clearance [1, 18]: 2.44 mL/min | apparent volume of distribution [1, 19]: 3.78 L/kg | half-life of the elimination phase [1, 19]: 52.4 min | rate constant for drug elimination and plasma clearance [1, 19]: 0.84 mL/min | hematologic parameters (hematocrit, hemoglobin, blood count) [2]: significantly increase | morphine-induced lethality [3]: protects against morphine-induced lethality | relation of dose to PBMC GSH ([4]; 1 gm, 2 gms and 3 gms/day): dose response relationship | completion of absorption and distribution within the PBMC [4, 20]: 60 min | start of absorption and distribution within the PBMC after ingestion [4, 20]: 30 min | toxicities ([4]; asymptomatic HIV (+) patients, 4 week period): no evidence of toxicities | insulin clearance and action [5]: No effect was seen | glucose-induced insulin secretion ([5]; patients with IGT): significantly potentiated | augmentation of cytotoxic activity [6]: 5 fold | systolic and diastolic blood pressure ([7]; 1,844 mg i.v. bolus, hypertensive patients and non-hypertensive diabetics, within ten minutes): rapid and significant decrease | blood pressure values ([7]; 3,699 mg dose, normal subjects): significant decrease | Km [8]: ~60 µM | V max [8]: approximately 0.5 nM/min per mg of protein | induction of HIV expression mediated by PMA, TNF-α or IL-6 [9]: suppressed in a dose-dependent fashion | share absorbed and intracellular ([10]; human): 70-80% | toxicities [10]: no significant toxicities | share absorbed and intracellular [10]: 80% | tumor growth [11]: regression or stagnation of their tumor growth | peroxynitrite formation [12]: significantly decreased | half-life [13]: 14.1 ± 9.2 min | survival after starting on GSH ([14]; 75 mg/kg in two divided doses, four patients who followed the regimen): 3 years | CD4+ cell counts ([14]; four patients): did not restore their CD4+ cell counts to any extent | duration of suppression of HIV production ([15]; intracellular GSH in infected monocytes raised to the high end of the normal range): about 35 days | HIV-1 p24 antigen levels and reverse transcriptase activity ([15]; single pulse exposure): sustained, concentration-dependent decrease

CC(=O)N[C@@H](CS)C(=O)O [NAC, N-acetyl-L-cysteine]
HIV-1 LTR-mediated gene expression [16]: significantly suppressed | induction of HIV expression mediated by PMA, TNF-α or IL-6 [9]: suppressed in a dose-dependent fashion | decrease of lung lavage neutrophil count [17]: six fold

N/C(=N\O)c1cc(O)c(O)c(O)c1 [TD, Trimidox]
HIV-1 LTR-mediated gene expression [16]: significantly suppressed

GSH ester [GSE]
induction of HIV expression mediated by PMA, TNF-α or IL-6 [9]: suppressed in a dose-dependent fashion
